{"source": "ChEMBL document CHEMBL1131512", "about": "“A new antitumor agent: methyl sulfonium perchlorate of echinomycin” (Bioorg Med Chem Lett, 1998)", "key": {"P388 [1]": {"system": "P388", "test": "In vitro cytotoxicity against P388 tumor cell lines.", "type": "functional, cell-based", "conditions": "Mus musculus"}, "SNU-16": {"system": "SNU-16", "test": "In vitro cytotoxicity against SNU16 tumor cell lines.", "type": "functional, cell-based", "conditions": "Homo sapiens"}, "B16 [2]": {"system": "B16", "test": "In vitro cytotoxicity against B16 tumor cell lines.", "type": "functional, cell-based", "conditions": "Mus musculus"}, "B16 [3]": {"system": "B16", "test": "In vivo antitumor activity was determined against B16 tumor cell lines in mice at dose of 0.125 mg/kg administered intraperitoneally. (p<0.05)", "type": "functional, Mus musculus", "conditions": "route intraperitoneal"}, "P388 [4]": {"system": "P388", "test": "In vivo antitumor activity was determined against P388 tumor cell lines in mice at dose of 0.25 mg/kg administered intraperitoneally. (p<0.05)", "type": "functional, Mus musculus", "conditions": "route intraperitoneal"}, "P388 [5]": {"system": "P388", "test": "In vivo antitumor activity was determined against P388 tumor cell lines in mice at dose of 0.125 mg/kg administered intraperitoneally. (p<0.05)", "type": "functional, Mus musculus", "conditions": "route intraperitoneal"}, "P388 [6]": {"system": "P388", "test": "In vivo antitumor activity was determined against P388 tumor cell lines in mice at dose of 0.0625 mg/kg administered intraperitoneally.", "type": "functional, Mus musculus", "conditions": "route intraperitoneal"}, "B16 [7]": {"system": "B16", "test": "In vivo antitumor activity was determined against B16 tumor cell lines in mice at dose of 0.03125 mg/kg administered intraperitoneally.", "type": "functional, Mus musculus", "conditions": "route intraperitoneal"}, "P388 [8]": {"system": "P388", "test": "In vivo antitumor activity was determined against P388 tumor cell lines in mice at dose of 0.03125 mg/kg administered intraperitoneally.", "type": "functional, Mus musculus", "conditions": "route intraperitoneal"}, "B16 [9]": {"system": "B16", "test": "In vivo antitumor activity was determined against B16 tumor cell lines in mice at dose of 0.25 mg/kg administered intraperitoneally. (p<0.05)", "type": "functional, Mus musculus", "conditions": "route intraperitoneal"}, "B16 [10]": {"system": "B16", "test": "In vivo antitumor activity was determined against B16 tumor cell lines in mice at dose of 0.0625 mg/kg administered intraperitoneally. (p<0.05)", "type": "functional, Mus musculus", "conditions": "route intraperitoneal"}, "B16 [11]": {"system": "B16", "test": "In vivo antitumor activity was determined against B16 tumor cell lines in mice at dose of 1 mg/kg administered intraperitoneally. (p<0.05)", "type": "functional, Mus musculus", "conditions": "route intraperitoneal"}, "P388 [12]": {"system": "P388", "test": "In vivo antitumor activity was determined against P388 tumor cell lines in mice at dose of 1 mg/kg administered intraperitoneally (p<0.05)", "type": "functional, Mus musculus", "conditions": "route intraperitoneal"}, "P388 [13]": {"system": "P388", "test": "In vivo antitumor activity was determined against P388 tumor cell lines in mice at dose of 0.125 mg/kg administered intraperitoneally.", "type": "functional, Mus musculus", "conditions": "route intraperitoneal"}, "P388 [14]": {"system": "P388", "test": "In vivo antitumor activity was determined against P388 tumor cell lines in mice at dose of 0.25 mg/kg administered intraperitoneally.", "type": "functional, Mus musculus", "conditions": "route intraperitoneal"}, "B16 [15]": {"system": "B16", "test": "In vivo antitumor activity was determined against B16 tumor cell lines in mice at dose of 1 mg/kg administered intraperitoneally.", "type": "functional, Mus musculus", "conditions": "route intraperitoneal"}, "P388 [16]": {"system": "P388", "test": "In vivo antitumor activity was determined against P388 tumor cell lines in mice at dose of 1 mg/kg administered intraperitoneally.", "type": "functional, Mus musculus", "conditions": "route intraperitoneal"}}, "data": [{"compound": "COc1cccc2c1C(=O)c1c(O)c3c(c(O)c1C2=O)C[C@@](O)(C(=O)CO)C[C@@H]3O[C@H]1C[C@H](N)[C@H](O)[C@H](C)O1", "note": "[DOXORUBICIN]", "values": [{"measurement": "IC50", "setting": "P388 [1]", "value": 9.6, "unit": "ng/mL"}, {"measurement": "IC50", "setting": "SNU-16", "value": 160, "unit": "ng/mL"}, {"measurement": "IC50", "setting": "B16 [2]", "value": 540, "unit": "ng/mL"}]}, {"compound": "CC(C)[C@H]1C(=O)OC[C@@H](NC(=O)c2cnc3ccccc3n2)C(=O)N[C@@H](C)C(=O)N(C)[C@H]2CSC(S(C)(=O)=O)[C@@H](C(=O)N1C)N(C)C(=O)[C@H](C)NC(=O)[C@H](NC(=O)c1cnc3ccccc3n1)COC(=O)[C@H](C(C)C)N(C)C2=O", "note": "(some centres undefined) [listing 1 of 2 here]", "values": [{"measurement": "IC50", "setting": "P388 [1]", "value": 60, "unit": "ng/mL"}, {"measurement": "IC50", "setting": "SNU-16", "value": 1100, "unit": "ng/mL"}, {"measurement": "IC50", "setting": "B16 [2]", "value": 820, "unit": "ng/mL"}]}, {"compound": "CSC1[C@H]2C(=O)N(C)[C@@H](C(C)C)C(=O)OC[C@@H](NC(=O)c3cnc4ccccc4n3)C(=O)N[C@@H](C)C(=O)N(C)[C@@H](C[S+]1C)C(=O)N(C)[C@@H](C(C)C)C(=O)OC[C@@H](NC(=O)c1cnc3ccccc3n1)C(=O)N[C@@H](C)C(=O)N2C.[Cl-]", "note": "(some centres undefined) [listing 1 of 2 here]", "values": [{"measurement": "MST", "setting": "B16 [3]", "value": 25, "unit": "days"}, {"measurement": "MST", "setting": "P388 [4]", "value": 34, "unit": "days"}, {"measurement": "MST", "setting": "P388 [5]", "value": 33, "unit": "days"}, {"measurement": "MST", "setting": "P388 [6]", "value": 32, "unit": "days"}, {"measurement": "MST", "setting": "B16 [7]", "value": 23, "unit": "days"}, {"measurement": "MST", "setting": "P388 [8]", "value": 31, "unit": "days"}, {"measurement": "MST", "setting": "B16 [9]", "value": 26, "unit": "days"}, {"measurement": "MST", "setting": "B16 [10]", "value": 24, "unit": "days"}, {"measurement": "MST", "setting": "B16 [11]", "value": 28, "unit": "days"}, {"measurement": "MST", "setting": "P388 [12]", "value": 35, "unit": "days"}]}, {"compound": "CSC1[C@H]2C(=O)N(C)[C@@H](C(C)C)C(=O)OC[C@@H](NC(=O)c3cnc4ccccc4n3)C(=O)N[C@@H](C)C(=O)N(C)[C@@H](C[S+]1C)C(=O)N(C)[C@@H](C(C)C)C(=O)OC[C@@H](NC(=O)c1cnc3ccccc3n1)C(=O)N[C@@H](C)C(=O)N2C.[Cl-]", "note": "(some centres undefined) [listing 2 of 2 here]", "values": [{"measurement": "IC50", "setting": "P388 [1]", "value": 0.0081, "unit": "ng/mL"}, {"measurement": "IC50", "setting": "SNU-16", "value": 0.0049, "unit": "ng/mL"}, {"measurement": "IC50", "setting": "B16 [2]", "value": 0.09, "unit": "ng/mL"}]}, {"compound": "CC(C)[C@H]1C(=O)OC[C@@H](NC(=O)c2cnc3ccccc3n2)C(=O)N[C@@H](C)C(=O)N(C)[C@H]2CSC([S+](C)[O-])[C@@H](C(=O)N1C)N(C)C(=O)[C@H](C)NC(=O)[C@H](NC(=O)c1cnc3ccccc3n1)COC(=O)[C@H](C(C)C)N(C)C2=O", "note": "(some centres undefined) [listing 1 of 2 here]", "values": [{"measurement": "IC50", "setting": "P388 [1]", "value": 8.8, "unit": "ng/mL"}, {"measurement": "IC50", "setting": "SNU-16", "value": 540, "unit": "ng/mL"}, {"measurement": "IC50", "setting": "B16 [2]", "value": 310, "unit": "ng/mL"}]}, {"compound": "CS[C@H]1SC[C@H]2C(=O)N(C)[C@@H](C(C)C)C(=O)OC[C@@H](NC(=O)c3cnc4ccccc4n3)C(=O)N[C@@H](C)C(=O)N(C)[C@@H]1C(=O)N(C)[C@@H](C(C)C)C(=O)OC[C@@H](NC(=O)c1cnc3ccccc3n1)C(=O)N[C@@H](C)C(=O)N2C", "note": "[ECHINOMYCIN]", "values": [{"measurement": "MST", "setting": "P388 [13]", "value": 33, "unit": "days"}, {"measurement": "MST", "setting": "P388 [14]", "value": 26, "unit": "days"}, {"measurement": "IC50", "setting": "P388 [1]", "value": 0.043, "unit": "ng/mL"}, {"measurement": "MST", "setting": "B16 [3]", "value": 25, "unit": "days"}, {"measurement": "IC50", "setting": "SNU-16", "value": 0.00016, "unit": "ng/mL"}, {"measurement": "MST", "setting": "P388 [6]", "value": 32, "unit": "days"}, {"measurement": "IC50", "setting": "B16 [2]", "value": "6.5e-05", "unit": "ng/mL"}, {"measurement": "MST", "setting": "B16 [7]", "value": 23, "unit": "days"}, {"measurement": "MST", "setting": "P388 [8]", "value": 31, "unit": "days"}, {"measurement": "MST", "setting": "B16 [9]", "value": 23, "unit": "days"}, {"measurement": "MST", "setting": "B16 [15]", "value": 21, "unit": "days"}, {"measurement": "MST", "setting": "P388 [16]", "value": 27, "unit": "days"}, {"measurement": "MST", "setting": "B16 [10]", "value": 24, "unit": "days"}]}, {"compound": "CC(C)[C@H]1C(=O)OC[C@@H](NC(=O)c2cnc3ccccc3n2)C(=O)N[C@@H](C)C(=O)N(C)[C@H]2CSC([S+](C)[O-])[C@@H](C(=O)N1C)N(C)C(=O)[C@H](C)NC(=O)[C@H](NC(=O)c1cnc3ccccc3n1)COC(=O)[C@H](C(C)C)N(C)C2=O", "note": "(some centres undefined) [listing 2 of 2 here]", "values": [{"measurement": "MST", "setting": "B16 [15]", "value": 20, "unit": "days"}, {"measurement": "MST", "setting": "P388 [16]", "value": 27, "unit": "days"}]}, {"compound": "CC(C)[C@H]1C(=O)OC[C@@H](NC(=O)c2cnc3ccccc3n2)C(=O)N[C@@H](C)C(=O)N(C)[C@H]2C[S+]([O-])C([S+](C)[O-])[C@@H](C(=O)N1C)N(C)C(=O)[C@H](C)NC(=O)[C@H](NC(=O)c1cnc3ccccc3n1)COC(=O)[C@H](C(C)C)N(C)C2=O", "note": "(some centres undefined) [listing 1 of 2 here]", "values": [{"measurement": "IC50", "setting": "P388 [1]", "value": 98, "unit": "ng/mL"}, {"measurement": "IC50", "setting": "SNU-16", "value": 590, "unit": "ng/mL"}, {"measurement": "IC50", "setting": "B16 [2]", "value": 1700, "unit": "ng/mL"}]}, {"compound": "CC(C)[C@H]1C(=O)OC[C@@H](NC(=O)c2cnc3ccccc3n2)C(=O)N[C@@H](C)C(=O)N(C)[C@H]2CSC(S(C)(=O)=O)[C@@H](C(=O)N1C)N(C)C(=O)[C@H](C)NC(=O)[C@H](NC(=O)c1cnc3ccccc3n1)COC(=O)[C@H](C(C)C)N(C)C2=O", "note": "(some centres undefined) [listing 2 of 2 here]", "values": [{"measurement": "MST", "setting": "B16 [15]", "value": 17, "unit": "days"}, {"measurement": "MST", "setting": "P388 [16]", "value": 25, "unit": "days"}]}, {"compound": "CC(C)[C@H]1C(=O)OC[C@@H](NC(=O)c2cnc3ccccc3n2)C(=O)N[C@@H](C)C(=O)N(C)[C@H]2C[S+]([O-])C([S+](C)[O-])[C@@H](C(=O)N1C)N(C)C(=O)[C@H](C)NC(=O)[C@H](NC(=O)c1cnc3ccccc3n1)COC(=O)[C@H](C(C)C)N(C)C2=O", "note": "(some centres undefined) [listing 2 of 2 here]", "values": [{"measurement": "MST", "setting": "B16 [15]", "value": 17, "unit": "days"}, {"measurement": "MST", "setting": "P388 [16]", "value": 31, "unit": "days"}]}]}
